Data published in patent publication US6492330B1, “Antiangiogenic drugs” (National Institute of Immunology, priority 1996, dated 2002).
Non-standard residues stand in square brackets, D forms with d. No end group written: not given here. dPhe(4-Cl) = N[C@H](Cc1ccc(Cl)cc1)C(=O)O; Deg = CCC(N)(CC)C(=O)O; Aib = CC(C)(N)C(=O)O

Legend:
Assay type in all cases: cell-based
ECV.304 cells = assay: MTT assay, inhibition of proliferation of endothelial cells ECV.304; details: for Percent Inhibition Proliferation: 72 hours (Table 1); for PERCENT INHIBITION OF PROLIFERATION: 72 hours (Table 2)
Description: (§1) 150 μl of medium was added to the wells of a 96-well tissue culture plate (Nunc, Denmark) followed by 30 μl of cell suspension. The plate was left in incubator (37° C., 5% CO2) overnight. Each of the seven peptides of the combination MuJ-7 were added at three molar concentrations of 10^−7M, 10^−8M and 10^−9M. 20 μl of MuJ-7 at three concentrations of N/10, N and 10N was added to marked wells of the 96-well plate. The value of N for each of the individual peptides was 10^−8M for VIP2, BOM1, SP1, VIP3, and SOM2 and 10^−7M for VIP1, and 10^−9M for SOM1. Each concentration was plated in triplicate. 20 μl of medium alone was added to control wells while wells without cells served as blanks. A total volume of 200 μl was ensured in each well and the plate was left in an incubator (37° C., 5% CO2). After 72 hours of incubation an MTT assay was performed and percentage inhibition in proliferation of treated cells was calculated with respect to control cells.
150 μl of medium was added to the wells of a 96-well tissue culture plate (Nunc, Denmark) followed by 30 μl of cell suspension. The plate was left in incubator (37° C., 5% CO2) overnight. Novel peptides shown below were incubated with cells at concentration range of 10^−7 to 10^−9 M (except DT71 at concentration range 10^−8 to 10^−10 M). Each concentration was plated in triplicates. 20 μl of medium alone was added to control wells while wells without cells served as blanks. A total volume of 200 μl was ensured in each well and plate was left in incubator (37° C., 5% CO2). After 72 hours of incubation an MTT assay was performed and percentage inhibition in proliferation of treated cells was calculated with respect to control cells.

EaHy.926 = assay: MTT assay, inhibition of proliferation of endothelial cells EaHy.926; details: 72 hours
Description: as §1

[1] = test system: endothelial cells ECV.304; assay: Migration assay across 8 μm polycarbonate filter transwell inserts; details: for Percent inhibition in migration: N = 10^−8 M for VIP2, BOM1, SP1, VIP3, SOM2, 10^−7M for VIP1, 10^−9M for SOM1, 24 hours; for PERCENT INHIBITION MIGRATION: analog at optimum concentration −8M, 24 hours (Table 4)
Description: Polycarbonate filter transwell inserts (24 well size) with 8 μm pores (Nunc, Denmark) were used for the migration assay. ECV304 (10^4 cells/200 ul DMEM containing 0.1% BSA) was added to the upper chamber. The lower chamber contained 600 ul of DMEM with 0.1% BSA. Individual peptides of the composition MuJ-7 at six different concentrations each of N/100, N/10, N, 10N, 100N and 1000N were added directly to the upper well and the plate incubated at 37° C. for 24 hours. The cells migrated to the lower chamber were viewed randomly at five different phase-contrast microscopic fields and the total number of cells counted using Video Pro 32 Image Analysis system. Percent inhibition in migration was determined with reference to the Control. Similarly, […] different concentrations of N/100, N/10, N, 10N, 100N and 1000N of MuJ-7 were added directly to the upper well and the plate incubated at 37° C. for 24 hours. The cells migrated to the lower chamber were counted as described above.
Polycarbonate filter trasnwell inserts (24 well size) with 8 μm pores (Nuno, Denmark) were used for the migration assay. ECV304 (10^4 cells/200 ul DMEM containing 0.1% BSA) was added to the upper chamber. The lower chamber contained 600 ul of DMEM with 0.1% BSA. […] The sequence of each of the peptides added are described above. The cells migrated to the lower chamber were viewed randomly at five different phase-contrast microscopic fields and the total number of cells counted using Video Pro 32 Image Analysis system. Percent inhibition in migration was determined with reference to Control. […]

ECV304 = assay: Tube-like-structure (TLS) formation on Matrigel; details: 24 hours; for Percent inhibition in TLS activity (TLS length): N = 10^−8 M for VIP2, BOM1, SP1, VIP3, SOM2, 10^−7M for VIP1, 10^−9M for SOM1; for INHIBITION OF TUBE LENGTH: peptide −8M
Description: Matrigel (350 ul) was placed into each well of a 24-well culture plate at 4° C. and was allowed to polymerize by incubation at 37° C. for 30 min. ECV304 (1.5×10^4) were seeded on the Matrigel in 500 ul DMEM supplemented with 10% FBS. MuJ-7 at four different concentrations of 0.25×, 0.5×, ×, & 5.0× were added and. the plate incubated at 37° C. for 24 hour. “×” denotes normal concentration of MuJ-7 where molar concentration of individual peptides was 10^−8 M for VIP2, BOM1, SP1, VIP3 and SOM2 and 10^−7 M for VIP1 and 10^−9 M for SOM1. […] Percent inhibition in tube area was determined with reference to untreated cells.
Matrigel (350 ul) was placed into each well of a 24-well culture plate at 4° C. and was allowed to polymerize by incubation at 37° C. for 30 min. ECV304 (1.5×10^4) were seeded on the Matrigel in 500 ul DMEM supplemented with 10% FBS. […] Percent inhibition in tube length was determined with reference to untreated cells.
Matrigel (350 ul) was placed into each well of a 24-well culture plate at 4° C. and was allowed to polymerize by incubation at 37° C. for 30 min. ECV304 (1.5×10^4) were seeded on the Matrigel in 500 ul DMEM supplemented with 10% FBS. Individual peptides of the composition MuJ-7 at three different concentrations each of N/10, N, and 10N were added and the plate incubated at 37° C. for 24 hours. […] Percent inhibition in tube length was determined with reference to Control. Similarly, three different concentrations of N/10, N, and 10N of MuJ-7 were added to the well and the plate incubated at 37° C. for 24 hours. Percent inhibition in tube length was determined with reference to Control as described previously (Table 10).

Substance | Percent Inhibition Proliferation (ECV.304 cells; ECV.304, peptide 10^−7M) | Percent Inhibition Proliferation (ECV.304 cells; ECV.304, peptide 10^−8M) | Percent Inhibition Proliferation (ECV.304 cells; ECV.304, peptide 10^−9M) | Percent Inhibition Proliferation (EaHy.926; EaHy.926, peptide 10^−7M) | Percent Inhibition Proliferation (EaHy.926; EaHy.926, peptide 10^−8M) | Percent Inhibition Proliferation (EaHy.926; EaHy.926, peptide 10^−9M) | Percent inhibition in migration ([1]; 10N) | Percent inhibition in migration ([1]; 100N) | Percent inhibition in migration ([1]; 1000N) | Percent inhibition in migration ([1]; N/10) | Percent inhibition in migration ([1]; N/100) | Percent inhibition in migration ([1]; N) | Percent inhibition in TLS activity (TLS length) (ECV304; 10N) | Percent inhibition in TLS activity (TLS length) (ECV304; N/10) | Percent inhibition in TLS activity (TLS length) (ECV304; N) | PERCENT INHIBITION OF PROLIFERATION (ECV.304 cells; ECV304, 10^−7M) | PERCENT INHIBITION OF PROLIFERATION (ECV.304 cells; ECV304, 10^−8M) | PERCENT INHIBITION OF PROLIFERATION (ECV.304 cells; ECV304, 10^−9M) | INHIBITION OF TUBE LENGTH (ECV304) | PERCENT INHIBITION MIGRATION [1]
His-Ser-Asp-Ala-Val-4-Cl-D-Phe-Thr-Asp-Asn-Tyr-Thr-Arg-Leu-Arg-Lys-Gln-Leu-Ala-Val-Lys-Lys-Tyr-Leu-Asn-Ser-Ile-Leu-Asn-NH2 (HSDAV[dPhe(4-Cl)]TDNYTRLRKQLAVKKYLNSILN-NH2; N-terminus assumed; SMILES CC[C@H](C)[C@H](NC(=O)[C@H](CO)NC(=O)[C@H](CC(N)=O)NC(=O)[C@H](CC(C)C)NC(=O)[C@H](Cc1ccc(O)cc1)NC(=O)[C@H](CCCCN)NC(=O)[C@H](CCCCN)NC(=O)[C@@H](NC(=O)[C@H](C)NC(=O)[C@H](CC(C)C)NC(=O)[C@H](CCC(N)=O)NC(=O)[C@H](CCCCN)NC(=O)[C@H](CCCNC(=N)N)NC(=O)[C@H](CC(C)C)NC(=O)[C@H](CCCNC(=N)N)NC(=O)[C@@H](NC(=O)[C@H](Cc1ccc(O)cc1)NC(=O)[C@H](CC(N)=O)NC(=O)[C@H](CC(=O)O)NC(=O)[C@@H](NC(=O)[C@@H](Cc1ccc(Cl)cc1)NC(=O)[C@@H](NC(=O)[C@H](C)NC(=O)[C@H](CC(=O)O)NC(=O)[C@H](CO)NC(=O)[C@@H](N)Cc1c[nH]cn1)C(C)C)[C@@H](C)O)[C@@H](C)O)C(C)C)C(=O)N[C@@H](CC(C)C)C(=O)N[C@@H](CC(N)=O)C(N)=O) [VIP3] | 21% | 25% | 22% | 21% | 9% | 24% | 23.90% | 11.62% | 0.00% | 32.80% | 0.00% | 92.45% |  |  |  |  |  |  |  | 
D-Phe-Cys-Tyr-D-Trp-Om-Thr-Pen-Thr-NH2 [SOM1] | 20% | 20% | 19% | 36% | 36% | 22% | 88.75% | 73.73% | 25.00% | 78.50% | 84.27% | 88.11% |  |  |  |  |  |  |  | 
KPRRPYTDNYTRLRKQMAVKKYLNSILN-NH2 [VIP1] | 15% | 17% | 16% | 25% | 24% | 23% | 62.60% | 66.52% | 0.00% | 52.60% | 37.53% | 69.40% |  |  |  |  |  |  |  | 
LMYPTYLK [VIP2] | 24% | 25% | 22% | 32% | 28% | 42% | 88.15% | 92.90% | 0.00% | 91.75% | 0.00% | 89.05% | 3.3% | 0.0% | 1.0% |  |  |  |  | 
D-Leu-Met-Tyr-Pro-Thr-Tyr-Deg-Lys-OH ([dL]MYPTY[Deg]K-OH; N-terminus assumed; SMILES CCC(CC)(NC(=O)[C@H](Cc1ccc(O)cc1)NC(=O)[C@@H](NC(=O)[C@@H]1CCCN1C(=O)[C@H](Cc1ccc(O)cc1)NC(=O)[C@H](CCSC)NC(=O)[C@H](N)CC(C)C)[C@@H](C)O)C(=O)N[C@@H](CCCCN)C(=O)O) [DT-19] |  |  |  |  |  |  |  |  |  |  |  |  |  |  |  | 11.9% | 7.3% | 21.0% | 37.8% | 80.4%
D-Leu-Met-Tyr-Pro-Thr-Tyr-Aib-Lys-OH ([dL]MYPTY[Aib]K-OH; N-terminus assumed; SMILES CSCC[C@H](NC(=O)[C@H](N)CC(C)C)C(=O)N[C@@H](Cc1ccc(O)cc1)C(=O)N1CCC[C@H]1C(=O)N[C@H](C(=O)N[C@@H](Cc1ccc(O)cc1)C(=O)NC(C)(C)C(=O)N[C@@H](CCCCN)C(=O)O)[C@@H](C)O) [DT-12] |  |  |  |  |  |  |  |  |  |  |  |  |  |  |  | 20.3% | 16.1% | 15.5% | 17.1% | 58.7%
[dR]PKP[dF]Q[dW]F[dW]LL-NH2 [SP1] | 18% | 24% | 22% | 49% | 32% | 37% | 92.65% | 78.10% | 18.10% | 94.10% | 13.97% | 90.50% | 3.0% | 14.4% | 8.9% |  |  |  |  | 
